{"source": "patent US11851428B2", "about": "“Activator of TREK (TWIK RElated K+channels) channels” (ONO PHARMACEUTICAL CO., LTD., priority 2016, dated 2023)", "key": {"[1]": {"tested_on": "ICR mice", "assay": "acetic acid writhing assay", "assay_type": "in vivo, mouse", "protocol": "d. Analgesic Effect in Acetic Acid Writhing Assay\nICR mice were pretreated with vehicle (0.5 w/v % methyl cellulose, p.o.) or Example 1-25 compounds (0.3, 1, 3 mg/kg, p.o.) or Example 2 compounds (1, 10, 300 mg/kg, p.o.) or indomethacin (10 mg/kg, p.o.). Compounds were suspended in 0.5 w/v % methyl cellulose and indomethacin was dissolved in 0.7% sodium bicarbonate. All drugs were administered in a volume of 10 mL/kg. Two hours after administration of the disclosed compounds and vehicle, or one hour after administration of indomethacin, the animals were injected with acetic acid (0.7% v/v in saline, 10 mL/kg, i.p.). The number of writhes (characterized by contraction of the abdominal musculature and extension of the limbs) was then counted for 30 min. Analgesic effect was evaluated by comparing the number of writhes between the rest compounds group and the vehicle group."}, "[2]": {"biological_target": "T1, human TREK-1 (Homo sapiens, UniProt O95069)", "T1 construct": "expressed in transfected cells", "T1 sequence (O95069 1-426)": "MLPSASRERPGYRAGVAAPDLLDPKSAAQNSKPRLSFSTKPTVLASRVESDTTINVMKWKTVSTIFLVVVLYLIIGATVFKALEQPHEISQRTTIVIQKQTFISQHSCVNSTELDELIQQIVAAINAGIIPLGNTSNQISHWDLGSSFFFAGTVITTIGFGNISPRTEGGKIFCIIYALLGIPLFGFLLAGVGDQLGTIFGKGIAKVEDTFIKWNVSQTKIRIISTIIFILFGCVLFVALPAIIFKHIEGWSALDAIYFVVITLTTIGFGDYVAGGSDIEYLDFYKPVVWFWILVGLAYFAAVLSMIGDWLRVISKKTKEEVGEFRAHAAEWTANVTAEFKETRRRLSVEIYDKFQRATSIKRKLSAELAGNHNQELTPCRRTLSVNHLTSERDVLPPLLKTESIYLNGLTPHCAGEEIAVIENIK", "assay": "thallium flux assay (TREK1 activation normalized to BL-1249)", "assay_type": "cell-based", "details": "concentration of Example compound 30 μM; normalized to 10 μM BL-1249; CHO-K1 cells stably expressing human TREK-1; read-out: TREK1 activation RBL-1249 (%)"}}, "note": "Entries after “also recorded” stand apart in the source; their conditions may differ."}
{"smiles": "Cc1cc(OC(F)(F)F)ccc1CNC(=O)c1ccc(-n2cncn2)nc1", "note": "[Example 2, N-[2-Methyl-4-(trifluoromethoxy)benzyl]-6-(1H-1,2,4-triazol-1-yl)nicotinamide]", "values": [{"measurement": "number of writhes induced by acetic acid", "setting": "[1]; ICR mice, 300 mg/kg p.o., 2 h before acetic acid i.p., counted for 30 min, vs vehicle, 300 mg/kg", "result": "significantly decreased the number of writhes; also recorded: the same degree as indomethacin 10 mg/kg"}, {"measurement": "number of writhes induced by acetic acid (FIGURE legend)", "setting": "[1]; mouse, p.o., dose not stated in the legend, *p<0.05 vs vehicle", "result": "inhibit the number of writhes induced by acetic acid"}, {"measurement": "activation at 30 µM", "setting": "[2]", "result": 20, "unit": "%"}]}
